Experimental findings from patent publication US10556878B2, “Thiourea compounds and their use as inhibitors of Sirt2 or Sirt5” (CORNELL UNIVERSITY, priority 2013, dated 2020) are described below.

The target of assay [1] is T1, Sirt5 (Homo sapiens, UniProt Q9NXA8).
T1 sequence (Q9NXA8 37-310): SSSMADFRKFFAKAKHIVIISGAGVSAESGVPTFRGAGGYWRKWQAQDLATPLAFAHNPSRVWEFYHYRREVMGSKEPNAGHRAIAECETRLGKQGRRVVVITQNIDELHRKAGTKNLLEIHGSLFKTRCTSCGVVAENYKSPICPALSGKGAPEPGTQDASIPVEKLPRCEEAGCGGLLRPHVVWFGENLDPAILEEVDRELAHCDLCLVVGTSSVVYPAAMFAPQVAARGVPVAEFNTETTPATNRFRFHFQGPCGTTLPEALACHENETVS
As to the kind of experiment: sirtuin inhibition IC50, Sirt5-catalyzed desuccinylation. It is filed as biochemical.

The test system of a further assay is MCF-7. Kind of assay: inhibition of MCF-7 cancer cells, crystal violet staining after 10 days. The format is cell-based, human. To be noted: 25, 50, 75, 100 μM. The method, then: 15,000 cells were seeded in each well and treated with 25, 50, 75, and 100 μM YC6-18 and YC6-18e. Media with the inhibitor/DMSO was changed every three days. Cells were stained with crystal violet after growing for 10 days. The results are shown in FIG. 5A (for YC-6-18) and FIG. 5B (for YC-6-18e).

A further assay has as its target T2, Sirt2 (Homo sapiens, UniProt Q8IXJ6).
T2 sequence (Q8IXJ6 1-389): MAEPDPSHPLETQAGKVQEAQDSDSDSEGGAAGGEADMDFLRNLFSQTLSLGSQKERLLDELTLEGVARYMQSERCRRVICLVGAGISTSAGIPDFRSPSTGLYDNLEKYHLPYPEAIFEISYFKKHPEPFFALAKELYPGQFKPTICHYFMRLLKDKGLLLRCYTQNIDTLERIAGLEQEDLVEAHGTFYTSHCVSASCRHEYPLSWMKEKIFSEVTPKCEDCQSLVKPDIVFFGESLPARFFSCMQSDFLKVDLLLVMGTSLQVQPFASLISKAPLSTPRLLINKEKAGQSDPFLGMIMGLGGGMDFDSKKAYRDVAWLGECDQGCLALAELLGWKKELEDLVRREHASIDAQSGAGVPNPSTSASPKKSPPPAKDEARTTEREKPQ
Kind of assay: sirtuin inhibition IC50, Sirt2. It is filed as biochemical.

For a further assay, the system named is MDA-MB-231. As to the kind of experiment: foci formation, MDA-MB-231. As to conditions: tested at 10, 25, 50, 100 μM. It is filed as cell-based, human. The method, then:
(§1) Each cancer cell line was assayed under the following six conditions: (1) untreated, (2) DMSO, (3) 15-2e at 10 μM, (4) 15-2e at 25 μM, (5) 15-2e at 50 μM, and (6) 15-2e at 100 μM.

Another assay concerns MDA-MB-468. As to the kind of experiment: foci formation, MDA-MB-468. To be noted: tested at 10, 25, 50, 100 μM. It is filed as cell-based, human. The method, then:
as §1

The test system of another assay is MCF-7 cells. As to the kind of experiment: foci formation, MCF-7. The format is cell-based, human. To be noted: tested at 10, 25, 50, 100 μM. Here is the method:
as §1

The next assay concerns the target T3, Sirt1 (Homo sapiens, UniProt Q96EB6).
T3 sequence (Q96EB6 1-747): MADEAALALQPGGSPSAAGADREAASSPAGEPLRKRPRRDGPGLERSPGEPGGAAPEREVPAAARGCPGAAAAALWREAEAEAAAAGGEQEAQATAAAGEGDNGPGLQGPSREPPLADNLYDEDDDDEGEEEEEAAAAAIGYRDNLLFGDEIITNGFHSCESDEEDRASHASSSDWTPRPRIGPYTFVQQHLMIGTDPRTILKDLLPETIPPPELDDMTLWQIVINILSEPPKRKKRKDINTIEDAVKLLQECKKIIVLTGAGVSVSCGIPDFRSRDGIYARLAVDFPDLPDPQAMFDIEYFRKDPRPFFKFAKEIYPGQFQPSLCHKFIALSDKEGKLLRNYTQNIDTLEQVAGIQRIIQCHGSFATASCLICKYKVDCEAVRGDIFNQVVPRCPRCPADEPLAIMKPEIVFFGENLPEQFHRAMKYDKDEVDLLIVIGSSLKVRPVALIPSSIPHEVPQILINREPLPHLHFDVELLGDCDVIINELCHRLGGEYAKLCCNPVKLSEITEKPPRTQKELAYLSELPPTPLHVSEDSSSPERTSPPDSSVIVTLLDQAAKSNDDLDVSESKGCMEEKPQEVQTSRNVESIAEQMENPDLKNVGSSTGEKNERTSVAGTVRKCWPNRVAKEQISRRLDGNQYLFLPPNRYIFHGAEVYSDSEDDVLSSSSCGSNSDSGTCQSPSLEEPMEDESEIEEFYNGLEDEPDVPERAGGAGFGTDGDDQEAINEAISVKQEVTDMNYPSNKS
Kind of assay: sirtuin inhibition IC50, Sirt1. It is filed as biochemical. As to conditions: Table 1; NI = no inhibition at 256 μM.

Assay [2] deals with T1, Sirt5. As to the kind of experiment: LC-MS analysis of reaction mixture with Sirt5 and NAD (mechanism-based inhibition). The format is biochemical. To be noted: LC / MS detection. Here is the method:
To further confirm that the thiourea compound 5 is a mechanism-based inhibitor, the reaction mixture was analyzed by liquid chromatography-mass spectrometry (LC-MS). An ion with m/z of 1028.17 (corresponding to Compound 7a or protonated Compound 7b or 7c) was detected only when Compound 5 was incubated with both Sirt5 and NAD for 15 minutes, but not in negative controls without Sirt5 or NAD. In addition to Compound 7a or protonated Compound 7b or 7c, two new ions with m/z of 356.33 (corresponding to Compound 1) and 471.42 (corresponding to Compound 10) were also observed when Compound 5 was incubated with both Sirt5 and NAD, but not in negative controls without Sirt5 or NAD. Both Compounds 1 and 10 can be derived from the regular Sirt5-catalyzed deacylation reaction of Compound 7a (herein denoted as pathway A, as discussed in A. A. Sauve, et al., Annu. Rev. Biochem., 75, 435-465, 2006) or by an alternative hydrolysis pathway of 7a that is different from the regular sirtuin-catalyzed deacylation pathway (herein denoted as pathway B). […]
The foregoing results are likely responsible for Compound 3b being a less capable inhibitor of Sirt5 compared to Compound 5. […] The decomposition of the covalent intermediate occurs mainly through the Sirt5-catalyzed deacylation pathway A as the major product detected is Compound 1 with an m/z of 356.33.
The intermediate (7a/7b/7c) is readily detected by LC. […]

For a further assay, the target named is T4, Sirt3 (Homo sapiens, UniProt Q9NTG7).
T4 sequence (Q9NTG7 1-399): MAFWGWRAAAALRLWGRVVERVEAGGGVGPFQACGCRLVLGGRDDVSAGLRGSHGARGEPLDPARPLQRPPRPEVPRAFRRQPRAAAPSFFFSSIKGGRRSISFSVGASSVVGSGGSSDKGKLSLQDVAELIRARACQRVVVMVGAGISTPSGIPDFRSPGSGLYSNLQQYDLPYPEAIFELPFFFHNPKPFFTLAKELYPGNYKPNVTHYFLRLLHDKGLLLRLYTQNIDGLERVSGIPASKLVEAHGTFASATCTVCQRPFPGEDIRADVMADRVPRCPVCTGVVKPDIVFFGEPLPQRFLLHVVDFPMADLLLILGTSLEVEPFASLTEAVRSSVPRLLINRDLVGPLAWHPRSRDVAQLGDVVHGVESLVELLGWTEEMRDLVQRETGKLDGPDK
As to the kind of experiment: sirtuin inhibition IC50, Sirt3. To be noted: Table 1; NI = no inhibition at 256 μM. It is filed as biochemical.

For a further assay, the system named is HeLa cell lines. As to the kind of experiment: protein succinylation Western blot in HeLa cells. The format is cell-based. As to conditions: 100 μM, 24 and 48 hours. Here is the method:
FIGS. 3A and 3B show the results of treatment of HeLa cell lines with 100 μM YC6-18e at time points of 24 and 48 hours, and FIG. 3C is the structure of YC6-18e. […] The results reveal that treatment with Compound YC6-18e can increase protein lysine succinylation. It was observed that the loading is lower for 48 hours but the succinylation intensity is slightly higher.
A general note: In western blotting, separated proteins are transferred to a membrane and probed.

Setting [3] is: Table 1, NI = no inhibition at 256 μM.

Where only a bound is given, the exact number is not on record here.

The term IC50 denotes the midpoint of a concentration-inhibition curve. High values mean weaker potency in that assay, low ones greater potency in that assay. On to `O=C(O)CCNC(=S)NCCCCC(NC(=O)OCc1ccccc1)C(=O)NC1CCSc2ccccc21` (stereo not shown) [YC6-18], for which half-maximal inhibition on Sirt5 [1] (Table 2, NI = no inhibition) (IC50) required 0.45 µM. The “killing of MCF-7 cells” value in the assay with MCF-7 is recorded as “almost no effect”.

`CC(C)(C)OC(=O)NC(CCCCNC(=S)NCCC(=O)O)C(=O)Nc1cccc(O)c1` (stereo not shown) [YC6-09] showed an IC50 against Sirt5 [1] (Table 2, NI = no inhibition) of 4.37 µM. This lies in the single-digit micromolar range.

For `NS(=O)(=O)c1cc(C(=O)NC(CCCCNC(=S)NCCC(=O)O)C(=O)Nc2cccc(O)c2)ccc1Cl` (stereo not shown) [YC6-14], the IC50 against Sirt5 [1] (Table 2, NI = no inhibition) came to 3.05 µM.

`O=C(O)CCNC(=S)NCCCCC(NC(=O)OCc1ccccc1)C(=O)Nc1ccc(O)cc1` (stereo not shown) [YC6-04] registered an IC50 on Sirt5 [1] (Table 2, NI = no inhibition) of 3.28 µM.

A word on the inhibition: it is the change of the read-out against control, counted positive when it falls. As to `CCOC(=O)CCNC(=S)NCCCCC(NC(=O)OCc1ccccc1)C(=O)Nc1cccc(O)c1` (stereo not shown) [Compound I5-2e], the IC50 was 7.05 µM against Sirt2 (Table 2, NI = no inhibition) and > 200 µM at Sirt5 [1] (Table 2, NI = no inhibition). Besides, the “concentration from which foci formation is inhibited” value in the assay on MDA-MB-231, in the assay on MDA-MB-468 and in the assay on MCF-7 cells was “about 25 μM” in each case. Further, the inhibition at 200 µM on Sirt5 [1] (Table 2, at 200 μM (footnote 3), read-out: inhibition of SIRT5 (in brackets under IC50)) turned out to be 30%.

Take `O=C(O)CCNC(=S)NCCCCC(NC(=O)OCc1ccccc1)C(=O)Nc1ccccc1O` (stereo not shown) [YC6-07]: the IC50 against Sirt5 [1] (Table 2, NI = no inhibition) is 1.91 µM.

`O=C(O)CCNC(=S)NCCCCC(NC(=O)OCc1ccccc1)C(=O)Nc1cccc(O)c1` (stereo not shown) [Compound I5-2] yielded a half-inhibitory concentration (IC50) against Sirt5 [1] (Table 2, NI = no inhibition) of 0.89 µM.

For the compound `O=C(O)CCCC(=S)NCCCC[C@H](NC(=O)OCc1ccccc1)C(=O)Nc1ccccc1` [Compound 3b], the IC50 at Sirt1 is > 256 µM; at Sirt2 (setting [3]), > 256 µM; against Sirt5 [1] (setting [3]), 43 µM; against Sirt3, > 256 µM. Further, the “covalent intermediate with NAD in the presence of Sirt5” value at Sirt5 [2] is “hardly detectable by LC”.

At Sirt5 [1] (Table 2, NI = no inhibition), `CC(=O)NC(CCCCNC(=S)NCCC(=O)O)C(=O)Nc1cccc(O)c1` (stereo not shown) [YC6-17] came in with an IC50 of 13.6 µM.

Turning to `CCCCCCCNC(=S)NCCCCC(NC(=O)OCc1ccccc1)C(=O)Nc1ccccc1` (stereo not shown) [Compound 6], the IC50 against Sirt1 was 64 µM; against Sirt2 (setting [3]), 0.2 µM; at Sirt5 [1] (setting [3]), > 256 µM.

`O=C(O)CCC(=S)NCCCCC(NC(=O)OCc1ccccc1)C(=O)Nc1ccccc1` (stereo not shown) [Compound 3a, reference compound]: the IC50 at Sirt1 was > 256 µM; against Sirt2 (setting [3]), > 256 µM; against Sirt5 [1] (setting [3]) it was > 500 µM; at Sirt3, > 256 µM. Further, at 500 µM the inhibition against Sirt5 [1] (at 500 μM) was 20%.

With `CCOC(=O)CCNC(=S)NCCCCC(NC(=O)OCc1ccccc1)C(=O)NC1CCSc2ccccc21` (stereo not shown) [YC6-18e], the half-inhibitory concentration (IC50) on Sirt2 (Table 2, NI = no inhibition) is 3.92 µM; against Sirt5 [1] (Table 2, NI = no inhibition), > 167 µM. The “succinylation level on proteins” value in the assay with HeLa cell lines is “increased the succinylation level on proteins at 24 and 48 hours”. Moreover, the “killing of MCF-7 cells” value in the assay with MCF-7 is given as “very effective in killing MCF-7 at 25 μM concentration”.
